Experimental data reported in ChEMBL document CHEMBL1132548, “Exploring the structure-activity relationships of [1-(4-tert-butyl-3'-hydroxy)benzhydryl-4-benzylpiperazine] (SL-3111), a high-affinity and selective delta-opioid receptor nonpeptide agonist ligand” (J Med Chem, 1999).

Assays:
Mu-type opioid receptor [1] = molecular target: Mu-type opioid receptor (Rattus norvegicus, UniProt P33535); assay: In vitro inhibition of [3H]DAMGO (Tyr-D-Ala-Gly-(Me)-Phe-Gly-ol) binding to Opioid receptor mu 1 using rat brain membranes; type: cell membranes, Membrane
[2] = molecular target: T1, Delta-type opioid receptor (Rattus norvegicus, UniProt P33533); assay: In vitro inhibition of [3H]- [p-Cl-Phe4]DPDPE binding to Opioid receptor delta 1 using rat brain membranes.; type: cell membranes, Membrane
[3] = molecular target: Mu-type opioid receptor (Cavia porcellus) (UniProt P97266); assay: Agonist activity using strips of guinea pig ileum longitudinal muscle myenteric plexus at 10 uM; type: functional, tissue-based
[4] = molecular target: Mu-type opioid receptor (Mus musculus) (UniProt P42866); assay: Agonist activity using electrically induced smooth muscle contraction of mouse vas deferens at 30 uM; type: functional, tissue-based
[5] = molecular target: T1, Delta-type opioid receptor; assay: In vitro inhibition of [3H]deltorphin binding to Opioid receptor delta 1 using rat brain membranes.; type: cell membranes, Membrane
Mu-type opioid receptor [6] = molecular target: Mu-type opioid receptor (Mus musculus, UniProt P42866); assay: Agonist activity using electrically induced smooth muscle contraction of mouse vas deferens.; type: functional
Mu-type opioid receptor [7] = molecular target: Mu-type opioid receptor (Cavia porcellus, UniProt P97266); assay: Agonist activity using strips of guinea pig ileum longitudinal muscle myenteric plexus.; type: functional, tissue-based
[8] = molecular target: Mu-type opioid receptor (Homo sapiens) (UniProt P35372); assay: Agonist activity using strips of guinea pig ileum longitudinal muscle myenteric plexus at 30 uM; type: functional, tissue-based
[9] = molecular target: Mu-type opioid receptor (Homo sapiens) (UniProt P35372); details: guinea pig; Ileum; at 10 µM
[10] = molecular target: Mu-type opioid receptor (Mus musculus) (UniProt P42866); details: Vas deferens; 1 uM
Description: Agonist activity using electrically induced smooth muscle contraction of mouse vas deferens at 1 uM

Mu-type opioid receptor (Mus musculus, UniProt P42866), sequence (P42866 whole entry): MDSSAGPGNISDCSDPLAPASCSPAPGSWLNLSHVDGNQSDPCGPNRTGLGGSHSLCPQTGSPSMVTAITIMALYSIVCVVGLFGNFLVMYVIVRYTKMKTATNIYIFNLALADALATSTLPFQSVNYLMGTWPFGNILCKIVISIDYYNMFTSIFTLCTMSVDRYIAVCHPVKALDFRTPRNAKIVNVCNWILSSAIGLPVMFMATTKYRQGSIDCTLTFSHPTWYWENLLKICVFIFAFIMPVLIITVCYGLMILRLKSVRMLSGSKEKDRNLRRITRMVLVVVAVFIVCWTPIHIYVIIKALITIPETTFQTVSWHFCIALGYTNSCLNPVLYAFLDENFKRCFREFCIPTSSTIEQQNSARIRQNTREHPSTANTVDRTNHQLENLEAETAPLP
Mu-type opioid receptor (Homo sapiens), sequence (P35372 whole entry): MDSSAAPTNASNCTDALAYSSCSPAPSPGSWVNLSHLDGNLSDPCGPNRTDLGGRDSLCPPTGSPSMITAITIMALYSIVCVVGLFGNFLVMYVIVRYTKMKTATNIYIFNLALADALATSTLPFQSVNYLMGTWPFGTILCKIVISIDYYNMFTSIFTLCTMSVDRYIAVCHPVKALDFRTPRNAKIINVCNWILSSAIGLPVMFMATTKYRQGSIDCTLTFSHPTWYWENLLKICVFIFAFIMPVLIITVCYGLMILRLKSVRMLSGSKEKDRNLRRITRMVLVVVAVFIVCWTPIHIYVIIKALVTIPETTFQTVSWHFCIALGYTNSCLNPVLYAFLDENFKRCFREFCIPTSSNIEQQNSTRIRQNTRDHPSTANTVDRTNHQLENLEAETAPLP
T1 sequence (P33533 whole entry): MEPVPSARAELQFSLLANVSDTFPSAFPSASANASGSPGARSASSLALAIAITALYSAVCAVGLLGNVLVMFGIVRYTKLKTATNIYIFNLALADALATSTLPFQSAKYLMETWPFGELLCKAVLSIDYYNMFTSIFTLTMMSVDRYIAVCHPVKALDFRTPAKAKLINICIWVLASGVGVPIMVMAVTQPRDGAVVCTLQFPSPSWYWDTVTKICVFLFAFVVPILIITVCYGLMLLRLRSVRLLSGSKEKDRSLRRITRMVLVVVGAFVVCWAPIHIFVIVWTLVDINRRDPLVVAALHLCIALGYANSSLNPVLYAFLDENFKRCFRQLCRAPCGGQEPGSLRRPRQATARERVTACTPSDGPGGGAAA
Mu-type opioid receptor (Rattus norvegicus, UniProt P33535), sequence (P33535 whole entry): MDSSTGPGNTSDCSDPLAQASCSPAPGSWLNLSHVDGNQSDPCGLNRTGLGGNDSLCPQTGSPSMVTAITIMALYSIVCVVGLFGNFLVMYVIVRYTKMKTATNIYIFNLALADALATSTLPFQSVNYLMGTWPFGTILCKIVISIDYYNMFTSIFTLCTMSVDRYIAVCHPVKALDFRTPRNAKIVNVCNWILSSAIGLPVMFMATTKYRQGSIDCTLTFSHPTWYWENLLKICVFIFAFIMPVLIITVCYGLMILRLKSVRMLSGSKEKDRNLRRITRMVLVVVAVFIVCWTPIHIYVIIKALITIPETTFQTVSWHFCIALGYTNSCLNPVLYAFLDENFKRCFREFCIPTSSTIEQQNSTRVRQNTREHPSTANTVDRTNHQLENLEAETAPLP
Mu-type opioid receptor (Mus musculus), sequence (P42866 whole entry): as the sequence (P42866 whole entry) above
Mu-type opioid receptor (Cavia porcellus), sequence (P97266 whole entry): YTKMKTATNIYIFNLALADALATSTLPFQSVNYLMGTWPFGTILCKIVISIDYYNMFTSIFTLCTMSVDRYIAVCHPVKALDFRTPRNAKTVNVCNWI
Mu-type opioid receptor (Cavia porcellus, UniProt P97266), sequence (P97266 whole entry): as above

O=C(OCc1ccc(O)cc1)N1CSC(=S)N(Cc2ccccc2)C1
IC50 (Mu-type opioid receptor [1]): 38.3 µM
IC50 [2]: 44.7 µM

CC(C)(C)c1ccc(C(c2cccc(O)c2)N2CCN(Cc3ccccc3)C[C@@H]2COCc2ccccc2)cc1 (stereo partly drawn)
inhibition [3]: 0%
inhibition [4]: 44%
IC50 (Mu-type opioid receptor [1]): 26 µM
IC50 [5]: 38 nM

CC(C)(C)c1ccc(C(c2cccc(O)c2)N2CCN(Cc3ccccc3)C[C@@H]2Cc2ccccc2)cc1 (stereo in doubt; 15c2)
IC50 (Mu-type opioid receptor [1]): 46.3 µM
IC50 [5]: 21300 nM

S=C1SCN(Cc2ccccc2)CN1Cc1ccccc1 [SULBENTINE]
IC50 (Mu-type opioid receptor [1]): 27.9 µM
IC50 [2]: 28.6 µM

CC(C)(C)c1ccc(C(c2cccc(O)c2)N2CCC(Cc3ccccc3)CC2)cc1 (stereo not drawn)
IC50 (Mu-type opioid receptor [1]): 22.9 µM
IC50 [5]: 12600 nM

CC(C)(C)c1ccc(C(c2cccc(O)c2)C2CCN(Cc3ccccc3)CC2)cc1 (stereo not drawn)
IC50 (Mu-type opioid receptor [1]): 4.3 µM
IC50 [5]: 33 nM
IC50 (Mu-type opioid receptor [6]): 390 nM
IC50 (Mu-type opioid receptor [7]): 15.6 µM

CC(C)(C)c1ccc(C(c2cccc(O)c2)N2CCN(Cc3ccccc3)C[C@@H]2Cc2ccccc2)cc1 (stereo in doubt; 15c1) [listing 1 of 2 here]
IC50 (Mu-type opioid receptor [1]): > 80 µM
IC50 [5]: > 10000 nM

C[C@H]1CN(Cc2ccccc2)CCN1C(c1ccc(C(C)(C)C)cc1)c1cccc(O)c1 (stereo partly drawn)
inhibition [8]: 0%
IC50 (Mu-type opioid receptor [1]): 3.3 µM
IC50 [5]: 11 nM
IC50 (Mu-type opioid receptor [6]): 290 nM

CC(C)(C)c1ccc(C(c2cccc(O)c2)N2CCN(Cc3ccccc3)C[C@@H]2CO)cc1 (stereo partly drawn)
IC50 (Mu-type opioid receptor [1]): 7.98 µM
IC50 [5]: 38 nM
inhibition [9]: 36%
IC50 (Mu-type opioid receptor [6]): 2260 nM

CC(C)(C)c1ccc(C(c2cccc(O)c2)N2CCN(Cc3ccccc3)C[C@@H]2Cc2ccccc2)cc1 (stereo in doubt; 15c1) [listing 2 of 2 here]
inhibition [10]: 10%
inhibition [8]: 0%
